We go through six molecules from ChEMBL document CHEMBL1126417, “Indazole as an indole bioisostere: 5-HT4 receptor antagonism” (Bioorg Med Chem Lett, 1992).

Test [1] addresses Serotonin 4 (5-HT4) receptor (Sus scrofa) (UniProt Q6Q253). The test is described as follows: Evaluated for the 5-hydroxytryptamine 4 receptor antagonistic activity in piglet atrium model. The format is functional, tissue-based. The note with it: Cardiac atrium.
Test [2] concerns the target Serotonin 3 (5-HT3) receptor (Homo sapiens) (UniProt P46098+A5X5Y0+O95264+Q70Z44+Q8WXA8).
Description: Evaluated for the 5-hydroxytryptamine 3 receptor antagonistic activity in Bezold-Jarisch model expressed as inhibition of the reflex bradycardia induced by an intravenous injection

Sequence of Serotonin 4 (5-HT4) receptor (Sus scrofa) (Q6Q253 as listed by the source): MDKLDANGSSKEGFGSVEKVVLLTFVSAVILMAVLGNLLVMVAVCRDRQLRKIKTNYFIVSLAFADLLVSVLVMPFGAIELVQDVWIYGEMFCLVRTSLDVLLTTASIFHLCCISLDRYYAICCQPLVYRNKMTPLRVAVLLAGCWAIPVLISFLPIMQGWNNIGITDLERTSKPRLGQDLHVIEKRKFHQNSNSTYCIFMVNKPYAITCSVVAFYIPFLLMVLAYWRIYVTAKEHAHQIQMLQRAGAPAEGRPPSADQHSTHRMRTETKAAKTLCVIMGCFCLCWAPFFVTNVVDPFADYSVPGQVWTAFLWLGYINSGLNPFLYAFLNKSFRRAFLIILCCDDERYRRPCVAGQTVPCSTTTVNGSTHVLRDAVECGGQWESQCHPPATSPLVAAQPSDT

`CN1C2CCC1CC(NC(=O)c1n[nH]c3ccccc13)C2` (stereo not given) returned a -Log KB in test [1] of 6.8. In test [2], this molecule registered an ID50 of 1.5 µg/kg.

On to `CN1C2CCC1CC(OC(=O)c1[nH]nc3ccccc13)C2` (stereo not given), for which the -Log KB in test [1] was determined as 7.2. In test [2], this molecule yielded an ID50 of 5 µg/kg.

In test [1], `CN1C2CCC1CC(NC(=O)N1CC(C)(C)c3ccccc31)C2` (stereo not given) returned a -Log KB of 4.9.

In turn, `CN1[C@@H]2CC[C@H]1C[C@@H](OC(=O)c1c[nH]c3ccccc13)C2` returned a -Log KB in test [1] of 6.9. Further, in test [2], the ID50 was 1.4 µg/kg.

As to `CN1C2CCCC1CC(NC(=O)c1[nH]nc3ccccc13)C2` (stereo not given), the -Log KB in test [1] was 5. Besides, the ID50 in test [2] turned out to be 1 µg/kg.

In test [1], `CN1[C@@H]2CC[C@H]1C[C@H](NC(=O)c1nn(C)c3ccccc13)C2` yielded a -Log KB of 6.5.
